Patent US20260109731A1, “NE[…] USE THEREOF” (HUNAN MINGRUI PHARMACEUTICAL CO., LTD., priority 2023, published 2026)
Where “and” joins values, the source holds several entries; their conditions need not be identical. Equal entries are not always repeated.

Test: In vitro phase I metabolic stability in male SD rat hepatic microsomes
Type: in vitro ADME
Details: for Peak area ratio (test compound/testosterone-D3 (internal standard)), mean value: mean of triplicate; for Peak area ratio (test compound/testosterone-D3 (internal standard)): single replicates -1, -2, -3
Protocol: Phase I metabolic stability kit (purchased from HUIZHI HEYUAN BIOTECHNOLOGY (BEIJING) CO., LTD), with the following components of the product:
Positive substrate testosterone solution (10 mM): diluted with acetonitrile to prepare a 200 μM solution for later use; stop solution & internal standard (testosterone-D3): dissolved with acetonitrile to prepare a 5 ng/mL solution for later use.
• 1) all components of the kit were thawed in an ice bath and placed on ice for later use; • 2) an incubation system (taking 200 μL system as an example) was prepared:
• 3) 160 μL of pre-incubation solution B was added into the centrifuge tube containing 40 μL of pre-incubation solution A, uniform mixing was performed by pipetting three times, and the resulting mixture was immediately placed in a water bath at 37° C. for incubation and timing was started; • 4) at predetermined incubation time points (0, 5, 10, 15, 30, 45, 60 minutes), the incubation solution was quantitatively taken out, and 200 μL of stop solution (5 ng/mL testosterone-D3 in acetonitrile, pre-chilled at 4° C.) was added to terminate the reaction (stop solution volume: incubation system volume=1:1). Experimental samples were prepared in triplicate at each time point.
To verify the validity of the experiment, a positive control group was established concurrently in the whole experiment to evaluate whether the incubation system functioned properly, with the preparation method as follows: the compound to be tested was replaced with the positive substrate testosterone (200 μM in acetonitrile) from the phase I metabolic stability kit, and the other components of the incubation system and experimental method were the same as those of the experimental group.
The ratio of the chromatographic peak area of the compound to be tested to the chromatographic peak area of the testosterone-D3 (internal standard) was used as the calculated data. By taking the peak area ratio at time zero of the test compound as 100%, the remaining percentages were calculated by comparing the peak area ratio at each time point with the peak area ratio at time zero, and the natural logarithms of the remaining percentages of the substrate at each time point are then subjected to linear regression against the incubation times to obtain the slope k. Therefore, the in vitro metabolic half-life (T1/2) and intrinsic clearance (CLint) were calculated using the following formulas: […]

With C[C@]12CC[C@H]3[C@@H](CCC4=CC(=O)CC[C@@]43C)[C@@H]1CC[C@@H]2O [Positive control, testosterone] as the molecule, how does the “Peak area ratio (test compound/testosterone-D3 (internal standard)), mean value” (incubation time 0 min) read?
The value was 20.01.

What about the “Peak area ratio (test compound/testosterone-D3 (internal standard))” value (incubation time 0 min) of the same molecule?
Its value is 20.12 and 19.58 and 20.33.

And the “Peak area ratio (test compound/testosterone-D3 (internal standard)), mean value” (incubation time 10 min)?
Its value is 0.06.

What about the “Peak area ratio (test compound/testosterone-D3 (internal standard))” value (incubation time 10 min) of the same molecule?
Its value is 0.05 and 0.08 and 0.06.
